Activity calls are given as the source filed them. The calls are words filed in the database; no cut-off is given here.
Tests used:
HepG2 = experiment: Antiproliferative activity against human HepG2 cells measured after 24 hrs by MTT assay; assay type: functional, cell-based; settings: HepG2, 24 h
HeLa [1] = experiment: Antiproliferative activity against human HeLa cells measured after 24 hrs by MTT assay; assay type: functional, cell-based
MCF7 = experiment: Antiproliferative activity against human MCF7 cells measured after 24 hrs by MTT assay; assay type: functional, cell-based; settings: MCF7, 24 h
A549 = experiment: Antiproliferative activity against human A549 cells measured after 24 hrs by MTT assay; assay type: functional, cell-based; settings: A549, 24 h
[2] = Inhibition of tubulin polymerization in bovine brain assessed as reduction in tubulin assembly after 20 mins by spectrophotometric method; parameters: species or system Bos taurus
HeLa [3] = experiment: Cell cycle arrest in human HeLa cells assessed as accumulation at G1 phase at 0.1 uM after 24 hrs by propidium iodide staining based flow cytometry (reference value: 85.81%); assay type: functional
HeLa [4] = experiment: Cell cycle arrest in human HeLa cells assessed as accumulation at G2/M phase at 0.1 uM after 24 hrs by propidium iodide staining based flow cytometry (reference value: 2.15%); assay type: functional
HeLa [5] = experiment: Cell cycle arrest in human HeLa cells assessed as accumulation at G1 phase at 0.2 uM after 12 hrs by propidium iodide staining based flow cytometry (reference value: 85.81%); assay type: functional
HeLa [6] = experiment: Cell cycle arrest in human HeLa cells assessed as accumulation at S phase at 0.2 uM after 12 hrs by propidium iodide staining based flow cytometry (reference value: 49.41%); assay type: functional
HeLa [7] = experiment: Cell cycle arrest in human HeLa cells assessed as accumulation at G2/M phase at 0.2 uM after 12 hrs by propidium iodide staining based flow cytometry (reference value: 2.15%); assay type: functional
HeLa [8] = experiment: Cell cycle arrest in human HeLa cells assessed as accumulation at S phase at 0.8 uM after 12 hrs by propidium iodide staining based flow cytometry (reference value: 49.41%); assay type: functional
HeLa [9] = experiment: Cell cycle arrest in human HeLa cells assessed as accumulation at G2/M phase at 0.8 uM after 12 hrs by propidium iodide staining based flow cytometry (reference value: 2.15%); assay type: functional
HeLa [10] = experiment: Cell cycle arrest in human HeLa cells assessed as accumulation at S phase at 0.5 uM after 12 hrs by propidium iodide staining based flow cytometry (reference value: 33.78%); assay type: functional
HeLa [11] = experiment: Cell cycle arrest in human HeLa cells assessed as accumulation at G2/M phase at 0.5 uM after 12 hrs by propidium iodide staining based flow cytometry (reference value: 8.14%); assay type: functional
HeLa [12] = experiment: Cell cycle arrest in human HeLa cells assessed as accumulation at S phase at 0.5 uM after 24 hrs by propidium iodide staining based flow cytometry (reference value: 33.78%); assay type: functional
HeLa [13] = experiment: Cell cycle arrest in human HeLa cells assessed as accumulation at G2/M phase at 0.5 uM after 24 hrs by propidium iodide staining based flow cytometry (reference value: 8.14%); assay type: functional
HeLa [14] = experiment: Cell cycle arrest in human HeLa cells assessed as accumulation at G1 phase at 0.5 uM after 36 hrs by propidium iodide staining based flow cytometry (reference value: 79.19%); assay type: functional
HeLa [15] = experiment: Cell cycle arrest in human HeLa cells assessed as accumulation at S phase at 0.5 uM after 36 hrs by propidium iodide staining based flow cytometry (reference value: 33.78%); assay type: functional
HeLa [16] = experiment: Cell cycle arrest in human HeLa cells assessed as accumulation at G2/M phase at 0.5 uM after 36 hrs by propidium iodide staining based flow cytometry (reference value: 8.14%); assay type: functional
HeLa [17] = experiment: Induction of apoptosis in human HeLa cells assessed as early apoptotic cells at 0.1 uM after 24 hrs by Annexin-V-FITC/propidium iodide staining based flow cytometry (reference value: 2.41%); assay type: functional
HeLa [18] = experiment: Induction of apoptosis in human HeLa cells assessed as late apoptotic cells at 0.1 uM after 24 hrs by Annexin-V-FITC/propidium iodide staining based flow cytometry (reference value: 3.1%); assay type: functional
HeLa [19] = experiment: Induction of apoptosis in human HeLa cells assessed as early apoptotic cells at 0.2 uM after 24 hrs by Annexin-V-FITC/propidium iodide staining based flow cytometry (reference value: 2.41%); assay type: functional
HeLa [20] = experiment: Induction of apoptosis in human HeLa cells assessed as late apoptotic cells at 0.2 uM after 24 hrs by Annexin-V-FITC/propidium iodide staining based flow cytometry (reference value: 3.1%); assay type: functional
HeLa [21] = experiment: Induction of apoptosis in human HeLa cells assessed as necrotic cells at 0.2 uM after 24 hrs by Annexin-V-FITC/propidium iodide staining based flow cytometry (reference value: 0.084%); assay type: functional
HeLa [22] = experiment: Induction of apoptosis in human HeLa cells assessed as viable cells at 0.4 uM after 24 hrs by Annexin-V-FITC/propidium iodide staining based flow cytometry (reference value: 94.4%); assay type: functional; settings: read-out: Activity
HeLa [23] = experiment: Induction of apoptosis in human HeLa cells assessed as viable cells at 0.8 uM after 24 hrs by Annexin-V-FITC/propidium iodide staining based flow cytometry (reference value: 94.4%); assay type: functional; settings: read-out: Activity
HeLa [24] = experiment: Induction of apoptosis in human HeLa cells assessed as late apoptotic cells at 0.8 uM after 24 hrs by Annexin-V-FITC/propidium iodide staining based flow cytometry (reference value: 3.1%); assay type: functional
HeLa [25] = experiment: Induction of apoptosis in human HeLa cells assessed as necrotic cells at 0.8 uM after 24 hrs by Annexin-V-FITC/propidium iodide staining based flow cytometry (reference value: 0.084%); assay type: functional
HeLa [26] = experiment: Induction of apoptosis in human HeLa cells assessed as late apoptotic cells at 0.5 uM after 12 hrs by Annexin-V-FITC/propidium iodide staining based flow cytometry (reference value: 2.64%); assay type: functional
HeLa [27] = experiment: Induction of apoptosis in human HeLa cells assessed as viable cells at 0.5 uM after 24 hrs by Annexin-V-FITC/propidium iodide staining based flow cytometry (reference value: 91%); assay type: functional; settings: read-out: Activity
HeLa [28] = experiment: Induction of apoptosis in human HeLa cells assessed as early apoptotic cells at 0.5 uM after 24 hrs by Annexin-V-FITC/propidium iodide staining based flow cytometry (reference value: 6.02%); assay type: functional
HeLa [29] = experiment: Induction of apoptosis in human HeLa cells assessed as late apoptotic cells at 0.5 uM after 24 hrs by Annexin-V-FITC/propidium iodide staining based flow cytometry (reference value: 2.64%); assay type: functional
HeLa [30] = experiment: Induction of apoptosis in human HeLa cells assessed as necrotic cells at 0.5 uM after 24 hrs by Annexin-V-FITC/propidium iodide staining based flow cytometry (reference value: 0.35%); assay type: functional
HeLa [31] = experiment: Induction of apoptosis in human HeLa cells assessed as viable cells at 0.5 uM after 36 hrs by Annexin-V-FITC/propidium iodide staining based flow cytometry (reference value: 91%); assay type: functional; settings: read-out: Activity
HeLa [32] = experiment: Induction of apoptosis in human HeLa cells assessed as early apoptotic cells at 0.5 uM after 36 hrs by Annexin-V-FITC/propidium iodide staining based flow cytometry (reference value: 6.02%); assay type: functional
HeLa [33] = experiment: Inhibition of microtubule polymerization in human HeLa cells at 0.2 uM after 24 hrs by DAPI staining based confocal microscopic analysis; assay type: cell-based
HeLa [34] = experiment: Inhibition of microtubule polymerization in human HeLa cells assessed as effect on microtubule organization at 0.2 uM after 24 hrs by DAPI staining based confocal microscopic analysis; assay type: cell-based

Work on `CCn1cc(C(=O)N2CCN(S(=O)(=O)c3c(C(C)C)cc(C(C)C)cc3C(C)C)CC2)c2ccccc21` yielded an IC50 (HepG2) of 0.49 µM, an IC50 (HeLa [1]) of 0.24 µM and an IC50 (MCF7) of 0.35 µM. For the same molecule, the IC50 (A549) was 0.59 µM, the IC50 [2] was 1.82 µM and the Activity (HeLa [3]) was 54.97%. The Activity (HeLa [4]) was 15.09%, the Activity (HeLa [5]) was 31.86% and the Activity (HeLa [6]) was 61.18%. It also gave an Activity (HeLa [7]) of 20.46%, an Activity (HeLa [8]) of 53.83% and an Activity (HeLa [9]) of 83.61%. For the same molecule, the Activity (HeLa [10]) was 51.97%, the Activity (HeLa [11]) was 18.43% and the Activity (HeLa [12]) was 55.73%. It also gave an Activity (HeLa [13]) of 54.57%, an Activity (HeLa [14]) of 1.19% and an Activity (HeLa [15]) of 53.25%. For the same molecule, the Activity (HeLa [16]) was 65.29%, the Activity (HeLa [17]) was 9% and the Activity (HeLa [18]) was 5.71%. It also gave an Activity (HeLa [19]) of 21.7%, an Activity (HeLa [20]) of 7.24% and an Activity (HeLa [21]) of 0.098%. It also gave a viability at 0.4 µM (HeLa [22]) of 63.6%, a viability at 0.8 µM (HeLa [23]) of 44% and an Activity (HeLa [24]) of 22.4%. The Activity (HeLa [25]) was 1.05%, the Activity (HeLa [26]) was 3.97% and the viability at 0.5 µM (HeLa [27]) was 72.7%. The Activity (HeLa [28]) was 20.1%, the Activity (HeLa [29]) was 6.84% and the Activity (HeLa [30]) was 0.303%. For the same molecule, the viability at 0.5 µM (HeLa [31]) was 53.1%, the Activity (HeLa [32]) was 25.3% and the inhibition (HeLa [33]) was “Active”. The inhibition (HeLa [34]) was “Active”.

— ChEMBL document CHEMBL3992485 (Medchemcomm, 2016)
